Consider 68 compounds from PubChem BioAssay AID651973 (The Scripps Research Institute Molecular Screening Center, 2013).

Active and inactive are the calls of the source. How the calls were made is not given here.

For this test, the system named is Cell-based VP16 transactivation luciferase reporter, luminescence. The test is described as follows: VP16 transactivation reporter inhibitors, dose response, counter-screen for LRH-1 inverse agonist project, cell-based, luminescence (AID 651973). Background: The purpose of a counterscreen is to sort out artefacts and off-target activity.
Usually IC50 stands for the concentration at which inhibition is half-maximal. As for `COc1cc(C(=O)Nc2ccccc2N2CCN(S(C)(=O)=O)CC2)cc(OC)c1OC`, the IC50 is > 35.9 µM (inactive).

As for `CC(=O)Nc1ccc(NC(=O)COC(=O)Cc2c[nH]c3ccccc23)cc1`, the IC50 was > 35.9 µM (inactive).

On to `Cc1ccn2c(=O)nc(SCC(=O)Nc3ccc4c(c3)OCCO4)nc2c1`, for which the IC50 is > 35.9 µM (inactive).

On to `O=C(COc1ccc2c3c(c(=O)oc2c1)CCCC3)NCCCN1CCOCC1`, for which the IC50 was > 35.9 µM (inactive).

Turning to `O=C(CSc1nncc(=O)[nH]1)Nc1cccc([N+](=O)[O-])c1`, the IC50 was 34.4 µM (inactive).

In the case of `CCCN(CC(=O)Nc1ccc(C(N)=O)cc1)CC(=O)Nc1ccccc1C`, the IC50 is > 35.9 µM (inactive).

`Cc1cc(OCC(=O)Nc2nccs2)c2c(C)cc(=O)oc2c1`: the IC50 is > 35.9 µM (inactive).

Take `CCc1cc(=O)oc2c(C)c(OCC(=O)NC3CC(C)(C)NC(C)(C)C3)ccc12`: the IC50 is > 35.9 µM (inactive).

Turning to `Cc1ccccc1Nc1nc(-c2cccnc2)nc2ccccc12`, the IC50 was 34.6 µM (inactive).

`COc1ccc(NS(=O)(=O)c2ccc(OCC(=O)N3CCN(C)CC3)cc2)cc1Cl`: the IC50 is > 35.9 µM (inactive).

Take `COC(=O)c1ccc(NC(=O)CN2CCN(c3ccc(Cl)cc3)CC2)cc1`: the IC50 was > 35.9 µM (inactive).

Turning to `COc1ccccc1NC(=O)CN1CCN(CC(=O)Nc2ccc3c(c2)OCCO3)CC1`, the IC50 is > 35.9 µM (inactive).

Turning to `COc1ccc(CCNC(=O)CSc2ccc(NC(C)=O)cc2)cc1OC`, the IC50 was > 35.9 µM (inactive).

`CC(=O)Nc1ccc(NC(=O)CSc2nnc(-c3cc4ccccc4o3)n2C)cc1`: the IC50 is > 35.9 µM (inactive).

In the case of `Cc1cc(=O)oc2c(C)c(OCC(=O)NC3CC(C)(C)NC(C)(C)C3)ccc12`, the IC50 was > 35.9 µM (inactive).

Turning to `COc1ccc(OC)c(NC(=O)c2ccccc2NC(=O)c2ccco2)c1`, the IC50 was > 35.9 µM (inactive).

As for `COc1cc(NC(=O)Cn2ccsc2=N)c(C)cc1[N+](=O)[O-]`, the IC50 is > 35.9 µM (inactive).

Turning to `O=C(COC(=O)CCN1C(=O)C2CC=CCC2C1=O)NCCc1ccccc1` (stereo not drawn), the IC50 is > 35.9 µM (inactive).

For `COc1cc(C(=O)Nc2ccccc2C2COC(=O)C2=N)cc(OC)c1OC` (stereo not drawn), the IC50 is > 35.9 µM (inactive).

As for `N=c1sccn1CC(=O)Nc1ccc(S(N)(=O)=O)cc1`, the IC50 was > 35.9 µM (inactive).

Consider `O=C(COC(=O)c1ccc[n+]([O-])c1)Nc1ccc([N+](=O)[O-])cc1Cl`, for which the IC50 is > 35.9 µM (inactive).

With `COC(=O)c1ccc(NC(=O)CSc2ccc(-c3ccccn3)nn2)cc1`, the IC50 was > 35.9 µM (inactive).

Regarding `CCc1cc(=O)oc2c(C)c(OCC(=O)NCCN3CCOCC3)ccc12`, the IC50 is > 35.9 µM (inactive).

As to `CCOc1ccc(NC(=O)CSc2nncc(=O)[nH]2)cc1`, the IC50 is > 35.9 µM (inactive).

In the case of `COc1ccc(NC(=O)CSc2nc(N)c(-c3ccccc3)c(=O)[nH]2)cc1`, the IC50 was > 35.9 µM (inactive).

For the compound `N#Cc1cc([N+](=O)[O-])ccc1NC(=O)COC(=O)C1CCC(=O)N1` (stereo not drawn), the IC50 is > 35.9 µM (inactive).

Turning to `Cc1cc(Br)ccc1NC(=O)CSc1nnc(CN2CCOCC2)n1C`, the IC50 was > 35.9 µM (inactive).

Consider `COc1cccc(-c2cnc3c(NC(C)=O)cc(-c4ccc(S(C)(=O)=O)cc4)cn23)c1`, for which the IC50 is > 35.9 µM (inactive).

For `CCCc1cc(=O)oc2c(C)c(OCC(=O)NCCCn3ccnc3)ccc12`, the IC50 is > 35.9 µM (inactive).

In the case of `C/C(=N\Nc1cc(C(F)(F)F)ccc1Cl)c1ccncc1`, the IC50 is > 35.9 µM (inactive).

For `CCCOc1ccc(NC(=O)CC2C(=O)N(C)C(=S)N2Cc2ccc3c(c2)OCO3)cc1` (stereo not drawn), the IC50 is 8.7 µM.

For the compound `Cc1cccc(NC(=O)COC(=O)Cc2cccs2)c1C`, the IC50 is > 35.9 µM (inactive).

Take `CCCc1nnc(SCC(=O)Nc2ccc(C(=O)OCC)cc2)o1`: the IC50 was > 35.9 µM (inactive).

Take `O=C(Nc1ccc(C(=O)N2CCOCC2)cc1)c1cccc([N+](=O)[O-])c1`: the IC50 is > 35.9 µM (inactive).

On to `CC1CCCN(c2cc(N(C)CCO)c([N+](=O)[O-])c3nonc23)C1` (stereo not drawn), for which the IC50 is > 35.9 µM (inactive).

Consider `Cc1ccc(NC(=O)COC(=O)C(NS(=O)(=O)c2ccc(Cl)cc2)C(C)O)c(Br)c1` (stereo not drawn), for which the IC50 is > 35.9 µM (inactive).

As for `NC(=O)C1CCN(C(=O)COc2ccc3c4c(c(=O)oc3c2)CCCC4)CC1`, the IC50 was > 35.9 µM (inactive).

In the case of `O=C(COC(=O)c1ccc(Br)cc1)Nc1ccccc1Br`, the IC50 was > 35.9 µM (inactive).

For `CCOc1ccc(NC(=O)CSc2nc3[nH]ncc3c(=O)[nH]2)cc1`, the IC50 is > 35.9 µM (inactive).

Regarding `Cc1cc(C)c2nc(NC(=O)c3ccc([N+](=O)[O-])o3)sc2c1`, the IC50 was > 35.9 µM (inactive).

Consider `O=C(Cc1ccc(S(=O)(=O)N2CCCC2)s1)Nc1cccc([N+](=O)[O-])c1`, for which the IC50 was 14.1 µM (inactive).

`CCn1c(SCC(=O)Nc2ccc(Cl)cc2)nnc1C1CC1`: the IC50 is > 35.9 µM (inactive).

Turning to `COC(=O)c1ccc(COc2ccc(/C=N/NC(N)=S)cc2)o1`, the IC50 was > 35.9 µM (inactive).

As for `Cc1cccc(NC(=O)COC(=O)CN2C(=O)c3ccccc3C2=O)c1C`, the IC50 is > 35.9 µM (inactive).

Consider `CC(O)(c1cccc(F)c1)c1nc(-c2ccc(S(C)(=O)=O)cc2)cs1` (stereo not drawn), for which the IC50 is 16.2 µM (inactive).

In the case of `COCC(=O)NC1CCN(CC(=O)Nc2ccc(OC)cc2[N+](=O)[O-])CC1`, the IC50 was > 35.9 µM (inactive).

For the compound `Cc1ccc(-c2csc(NC(=O)c3ccc([N+](=O)[O-])o3)n2)cc1`, the IC50 is > 35.9 µM (inactive).

For the compound `O=C(CSc1n[nH]c(-c2ccccc2)n1)Nc1ccc(F)cc1F`, the IC50 is > 35.9 µM (inactive).

In the case of `CC(Oc1ccc(S(=O)(=O)N2CCCC2)cc1[N+](=O)[O-])C(=O)NC(C)c1ccccc1` (stereo not drawn), the IC50 is 20.1 µM (inactive).

Consider `Cc1ccc(-c2nn3c(C)nnc3s2)cc1NC(=O)c1ccco1`, for which the IC50 was > 35.9 µM (inactive).

For `CC(=O)Nc1ccc(NC(=O)CSc2ccc(-c3ccco3)nn2)cc1`, the IC50 is > 35.9 µM (inactive).

For the compound `COc1ccc(CCNC(=O)COC(=O)C23CC4CC(CC(Br)(C4)C2)C3)cc1`, the IC50 was > 35.9 µM (inactive).

Regarding `O=[N+]([O-])c1ccc(N2CCN(S(=O)(=O)c3ccccc3)CC2)cc1NCc1cccnc1`, the IC50 is > 35.9 µM (inactive).

On to `O=C(NC1CCCC(C(F)(F)F)C1)c1ccc([N+](=O)[O-])o1` (stereo not drawn), for which the IC50 is > 35.9 µM (inactive).

Take `Cc1no[n+]([O-])c1COc1ccccc1/C=N/n1nnnc1N`: the IC50 is > 35.9 µM (inactive).

For the compound `O=[N+]([O-])c1cc(F)c(N2CCCCCC2)cc1N1CCNCC1`, the IC50 is 19.3 µM (inactive).

With `CC(=O)Nc1cc(-c2ccc(F)cc2)cn2c(-c3ccc(S(C)(=O)=O)cc3)cnc12`, the IC50 is > 35.9 µM (inactive).

On to `O=C(CN1C(=O)NC2(CCCCC2)C1=O)NCCc1c[nH]c2ccccc12`, for which the IC50 is > 35.9 µM (inactive).

Take `COc1ccc(C2(C)NC(=O)N(CC(=O)NCCC3=CCCCC3)C2=O)cc1OC` (stereo not drawn): the IC50 was > 35.9 µM (inactive).

For `O=C(Nc1nc2c(Cl)cccc2s1)c1ccc([N+](=O)[O-])o1`, the IC50 was > 35.9 µM (inactive).

Take `COc1ccc(NC(=O)CSc2ncnc3[nH]ncc23)cc1`: the IC50 was > 35.9 µM (inactive).

For the compound `O=C(CCl)NCCCN(C(=O)C(Cl)Cl)c1ccc([N+](=O)[O-])cc1`, the IC50 is 28.4 µM (inactive).

Take `CCc1ccccc1NC(=O)CSc1nnc([C@@H]2CCCN2C(=O)OC(C)(C)C)o1`: the IC50 is > 35.9 µM (inactive).

Take `Cc1ccc(NC(=O)CN2C(=O)NC(C)(CC(C)C)C2=O)c(Br)c1` (stereo not drawn): the IC50 is > 35.9 µM (inactive).

`CC1SC(C)C(=O)N(CC(=O)Nc2ccc3c(c2)OCO3)C1=O` (stereo not drawn): the IC50 is > 35.9 µM (inactive).

Consider `CC(=O)c1ccc(NC(=O)C(C)O/N=C(\N)c2ccccc2)cc1` (stereo not drawn), for which the IC50 was > 35.9 µM (inactive).

As to `O=C(COc1ccc2c3c(c(=O)oc2c1)CCCC3)NCCN1CCOCC1`, the IC50 was > 35.8 µM (inactive).

Take `CCCNC(=O)c1sc2c(c1C(=O)Nc1ccccn1)CCCC2`: the IC50 is > 35.9 µM (inactive).
